“Also recorded” adds a separate entry of the source. Where two headings read alike, the source gives them in different places.
Columns and labels:
USP30 = target: T1, USP30 (Homo sapiens, UniProt Q70CQ3); assay: USP30 biochemical IC50 assay
T1 sequence (Q70CQ3 1-517): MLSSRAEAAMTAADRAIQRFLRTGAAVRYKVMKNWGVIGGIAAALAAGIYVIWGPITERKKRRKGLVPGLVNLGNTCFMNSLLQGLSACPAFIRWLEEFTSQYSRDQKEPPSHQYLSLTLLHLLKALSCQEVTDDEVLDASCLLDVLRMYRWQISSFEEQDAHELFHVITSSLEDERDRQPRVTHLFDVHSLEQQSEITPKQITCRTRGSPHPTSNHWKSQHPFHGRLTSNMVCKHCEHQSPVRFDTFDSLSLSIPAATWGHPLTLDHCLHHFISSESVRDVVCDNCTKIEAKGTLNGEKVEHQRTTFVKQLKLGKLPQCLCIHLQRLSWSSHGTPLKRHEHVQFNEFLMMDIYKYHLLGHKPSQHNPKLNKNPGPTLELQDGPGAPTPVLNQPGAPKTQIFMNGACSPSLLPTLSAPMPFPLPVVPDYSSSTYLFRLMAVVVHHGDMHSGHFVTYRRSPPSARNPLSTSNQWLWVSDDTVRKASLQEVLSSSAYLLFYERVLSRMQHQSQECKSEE
Procedure: Dilution plates were prepared at 21 times the final concentration (2100 μM for a final concentration of 100 μM) in 50% DMSO in a 96-well polypropylene V-bottom plate (Greiner #651201). A typical 8-point dilution series would be 100, 30, 10, 3, 1, 0.3, 0.1, 0.03 μM final. Reactions were performed in duplicate in black 384 well plates (small volume, Greiner 784076) in a final reaction volume of 21 μl. Either 1 μl of 50% DMSO or diluted compound was added to the plate. USP30 was diluted in reaction buffer (40 mM Tris, pH 7.5, 0.005% Tween 20, 0.5 mg/ml BSA, 5 mM beta-mercaptoethanol) to the equivalent of 0.05 μl/well and 10 μl of diluted USP30 was added to the compound. Enzyme and compound were incubated for 30 min at room temp. Reactions were initiated by the addition of 50 nM of TAMRA labelled peptide linked to ubiquitin via an iso-peptide bond as fluorescence polarisation substrate. Reactions were read immediately after addition of substrate and following a 2-hour incubation at room temperature. Readings were performed on a Pherastar Plus (BMG Labtech). λ Excitation 540 nm; λ Emission 590 nm.

diet-induced NAFLD/NASH = assay: Diet-induced model of NAFLD/NASH; assay type: in vivo, mice; conditions: diet-induced NAFLD/NASH, P.O., 8 weeks; Elafibranor 30 mg/kg QD
Procedure: Mice were fed Amylin-diet (D09100301, Research Diets, US; 40% fat (18% trans-fat), 40% carbohydrate (20% fructose) and 2% cholesterol) for 37 weeks. Liver biopies were harvested and mice were randomization into treatment groups based on liver Colla1 quantification. Three weeks following biopsy surgery, study animals were dosed orally (P.O.) with either; Vehicle (0.5% HPMC/0.5% PVP/0.1% SDS nanosuspension), MT#1 @ 15 mg/kg QD or MT#1 @ […] QD […] or with Elafibranor @ 30 mg/kg QD (positive control) for eight (8) weeks. A control group of age- and sex-matched mice fed lean chow diet ad libitum were also administered vehicle (P.O) over the same 8 (eight) week period. Following the full dosing schedule, mice were sacrificed, whole livers resected and weighed, fixed in paraformaldehyde before being paraffin embedded. H&E stained slides were then prepared and the average % fractional area of lipid vacuoles (steatosis) determined for each section (@ 20×objective) using Visiomorph software (Visophram, Denmark). The average % fractional area was multiplied by the total liver weight to determine the total liver lipid content per animal. Values expressed as mean of n=9-12+SEM. Dunnett's test one-factor linear model. **: P<0.01, ***: P<0.001 compared to DIO-NASH Vehicle.
Summary of fibrosis stage scores of pre- and post-study liver biopsies harvested from the diet-induced NAFLD/NASH study. Fibrosis stage scores are determined by assessment of picosirius red stained liver sections for relative appearance and location of collagen staining, where; 0=No staining, 1=Perisinusoidal or periportal, 2=Perisinusoidal and periportal and […]=Bridging collagen staining observed. For each group of animals with higher (worsening), same or lower (improvement) in score at post-compared to pre-study is indicated by the height of the bar. One-sided Fisher's exact test with Bonferroni correction. No differences at significance level 0.05.

[1] = tested on: Unilateral ureteral obstruction (UUO) kidney fibrosis; assay: Unilateral ureteral obstructive kidney disease model (UUO); assay type: in vivo; conditions: UUO, 20 mg/kg IN-1130 QD IP, days 0 to 10
Description: In this study, adult C57B16 female mice at 7 to 8 weeks of age with average weight of around 18 to 20 g were used. To complete the ureteral obstruction, the abdominal cavity was exposed via a midline incision and the left ureter was ligated at two points with 4-0 silk and dissected. Successful unilateral ureteral obstruction was later confirmed by observation of dilation of the renal pelvis due to hydronephrosis.
At harvest, mice were anesthetised and both kidneys were harvested; the contralateral kidney serves as control for the UUO kidney. The kidneys were dissected along median line into two parts, of which one side was fixed in formaldehyde, for paraffin embedding and the other was snap frozen for protein or RNA isolation.
Formalin fixed tissue were embedded in paraffin blocks and cut into 5 μm sections. All damaged kidneys, 5 contralateral kidneys from each group and 3 sham kidneys were analysed (in total n=80 kidney samples). Picrosirius Red and α-SMA stain was performed to evaluate fibrotic changes and myofibroblast activation. Analysis was performed by a pathology trained technical staff member, without knowledge of the animal group assignment. High magnification images were taken of each slide an analysed for the surface area covered by the stain.

[2] = tested on: Bleomycin-induced lung fibrosis; assay: Bleomycin-induced lung fibrosis model; conditions: 100 mg/kg pirfenidone BID, oral, days 7 to 21, bleomycin 1.5 U/kg
Procedure: Treatment group animals (n=10/group) received 1.5 U/kg of clinical bleomycin via oropharyngeal route on day 0 under inhalant anaesthesia. Animals were monitored for tolerance of the bleomycin administration procedure and subsequently bodyweights of all mice were recorded at least 3 times per week during the study. […] All treatments were administered orally.
At day 21, lungs were harvested from each animal and weighed, followed by fixation in 10% neutral buffered formalin (NBF) for histopathological analysis. The lung samples were processed and embedded with all lobes from each mouse in one paraffin block. Coronal sections through the four major lobes were stained with Masson's Trichrome. For each animal, consecutive lung fields were examined at 200×magnification in a raster pattern using a 20×objective lens and a 10×ocular lens. […] The Fibrotic Index was calculated as the sum of the modified Ashcroft field scores divided by the number of fields examined.

| SMILES | IC50 (USP30; Examples of WO 2017/103614) [nM] | other results |
| --- | --- | --- |
| C[C@@H]1C(CNC(=O)c2ncn(-c3cccc(C#N)c3)n2)CCN1C#N (mixture of isomers) [Example 4, N-(((2R,3R)-1-cyano-2-methylpyrrolidin-3-yl)methyl)-1-(3-cyanophenyl)-1H-1,2,4-triazole-3-carboxamide and N-(((2R,3S)-1-cyano-2-methylpyrrolidin-3-yl)methyl)-1-(3-cyanophenyl)-1H-1,2,4-triazole-3-carboxamide] | – | IC50 (USP30): 10 to 100 nM |
| CSc1ccc(C(=O)/C=C/c2cc(C)c(OC(C)(C)C(=O)O)c(C)c2)cc1 [Elafibranor, reference compound] | – | fibrotic stage scores (picosirius red stained liver sections, post- compared to pre-study biopsy) (diet-induced NAFLD/NASH): Neither MT#1 or Elafibranor (positive control) significantly improved; also recorded: failed to statistically improve; liver steatosis (diet-induced NAFLD/NASH): significantly reducing |
| N#CN1CCC(CNC(=O)c2ncn(-c3ccccc3)n2)C1 (stereo not shown) [Example 3, N-((1-cyanopyrrolidin-3-yl)methyl)-1-phenyl-1H-1,2,4-triazole-3-carboxamide] | – | IC50 (USP30): 100 to 1000 nM |
| N#CN1CC[C@H](CNC(=O)c2cn(-c3cccc(Cl)c3)nn2)C1 [Example 6, (R)-1-(3-chlorophenyl)-N-((1-cyanopyrrolidin-3-yl)methyl)-1H-1,2,3-triazole-4-carboxamide] | – | IC50 (USP30): 100 to 1000 nM |
| N#CN1CC[C@H](CNC(=O)c2cnn(-c3cccc(Cl)c3)n2)C1 [Example 7, (R)-2-(3-chlorophenyl)-N-((1-cyanopyrrolidin-3-yl)methyl)-2H-1,2,3-triazole-4-carboxamide] | – | IC50 (USP30): < 10 nM |
| N#CN1CC[C@H](CNc2ncc(-c3ccccc3)s2)C1 [Example 9, (R)-3-(((5-phenylthiazol-2-yl)amino)methyl)pyrrolidine-1-carbonitrile] | 10 to 100 | – |
| N#CN1CCC(CNC(=O)c2cnc(-c3ccccc3)o2)C1 (stereo not shown) [Example 20, N-((1-cyanopyrrolidin-3-yl)methyl)-2-phenyloxazole-5-carboxamide] | 100 to 1000 | – |
| N#CN1CCC(CNC(=O)c2cc(-c3ccccc3)no2)C1 (stereo not shown) [Example 21, N-((1-cyanopyrrolidin-3-yl)methyl)-3-phenylisoxazole-5-carboxamide] | 100 to 1000 | – |
| N#CN1CCC(CNC(=O)c2cc(-c3ccccc3)[nH]n2)C1 (stereo not shown) [Example 22, N-((1-cyanopyrrolidin-3-yl)methyl)-5-phenyl-1H-pyrazole-3-carboxamide] | 100 to 1000 | – |
| N#CN1CCC(CNC(=O)c2csc(-c3ccccc3)n2)C1 (stereo not shown) [Example 26, N-((1-cyanopyrrolidin-3-yl)methyl)-2-phenylthiazole-4-carboxamide] | 100 to 1000 | – |
| N#CN1CCC(CNC(=O)c2cc(-c3ccccc3F)n[nH]2)C1 (stereo not shown) [Example 31, N-((1-cyanopyrrolidin-3-yl)methyl)-3-(2-fluorophenyl)-1H-pyrazole-5-carboxamide] | 100 to 1000 | – |
| N#CN1CCC(CNC(=O)c2ncc(-c3ccccc3)o2)C1 (stereo not shown) [Example 38, N-((1-cyanopyrrolidin-3-yl)methyl)-5-phenyloxazole-2-carboxamide] | 100 to 1000 | – |
| N#CN1CC[C@H](CNC(=O)c2cc(-c3cccc(Cl)c3)no2)C1 [Example 55, (R)-3-(3-chlorophenyl)-N-((1-cyanopyrrolidin-3-yl)methyl)isoxazole-5-carboxamide] | 10 to 100 | – |
| N#CN1CC[C@H](CNC(=O)c2cc(-c3ccccc3)on2)C1 [Example 58, (R)-N-((1-cyanopyrrolidin-3-yl)methyl)-5-phenylisoxazole-3-carboxamide] | 100 to 1000 | – |
| N#CN1CC[C@H](CNC(=O)c2nc(-c3ccccc3)cs2)C1 [Example 62, (R)-N-((1-cyanopyrrolidin-3-yl)methyl)-4-phenylthiazole-2-carboxamide] | 100 to 1000 | – |
| N#CN1CC[C@H](CNC(=O)c2ccn(-c3ccccc3)n2)C1 [Example 63, (R)-N-((1-cyanopyrrolidin-3-yl)methyl)-1-phenyl-1H-pyrazole-3-carboxamide] | 100 to 1000 | – |
| N#CN1CC[C@H](CNC(=O)c2cnc(-c3ccccc3)[nH]2)C1 [Example 64, (R)-N-((1-cyanopyrrolidin-3-yl)methyl)-2-phenyl-1H-imidazole-5-carboxamide] | 100 to 1000 | – |
| N#CN1CC[C@H](CNC(=O)c2cc(-c3ccccc3Cl)no2)C1 [Example 66, (R)-3-(2-chlorophenyl)-N-((1-cyanopyrrolidin-3-yl)methyl)isoxazole-5-carboxamide] | 100 to 1000 | – |
| N#CN1CC[C@H](CNC(=O)c2cc(-c3ccc(Cl)cc3)no2)C1 [Example 67, (R)-3-(4-chlorophenyl)-N-((1-cyanopyrrolidin-3-yl)methyl)isoxazole-5-carboxamide] | 100 to 1000 | – |
| N#Cc1cccc(-c2nnc(C(=O)NC[C@@H]3CCN(C#N)C3)o2)c1 [Example 69, (S)-5-(3-cyanophenyl)-N-((1-cyanopyrrolidin-3-yl)methyl)-1,3,4-oxadiazole-2-carboxamide] | 10 to 100 | – |
| N#Cc1cccc(-n2cnc(C(=O)NC[C@H]3CCN(C#N)C3)c2)c1 [Example 71, (R)-1-(3-cyanophenyl)-N-((1-cyanopyrrolidin-3-yl)methyl)-1H-imidazole-4-carboxamide] | 10 to 100 | – |
| N#Cc1ccc(-n2cnc(C(=O)NC[C@H]3CCN(C#N)C3)c2)cc1 [Example 72, (R)-1-(4-cyanophenyl)-N-((1-cyanopyrrolidin-3-yl)methyl)-1H-imidazole-4-carboxamide] | 100 to 1000 | – |
| Cc1cccc(-c2[nH]c(Cc3cccc(C(N)=O)c3)nc2-c2ccc3nccnc3c2)n1 [IN-1130, reference compound] | – | In life mortality [1]: 0% |
| Cc1ccc(=O)n(-c2ccccc2)c1 [pirfenidone, reference compound] | – | In life mortality [2]: 0% |
